Data as given in patent US20210348119A1, “COMPOSITIONS AND METHODS FOR CELL CULTURE” (The United States of America as Represented By The …, priority 2018, published 2021).
Read-outs that look alike come from different tables or passages of the source.

Assays:
ROCK1 = molecular target: T1, ROCK1 (Homo sapiens, UniProt Q13464); experiment: HotSpot Kinase Assay (Reaction Biology) ROCK1; format: biochemical
T1 construct: purchased Reaction Biology Corporation (Malvern, Pa.)

H9 cells [1] = experiment: Embryoid body formation assays; details: AggreWell plates, 24 hours after seeding
Description: In one series of experiments, H9 cells were dissociated with Accutase. […] Embryoid body (EB) formation was examined 24 hours after cell seeding.
In a different experimental approach (data not shown), a defined number of H9 cells was plated into AggreWell™ plates (StemCell Technologies, Vancouver, Canada) to generate single EBs per well. Embryoid body (EB) formation was examined 24 hours after cell seeding.
Pluripotent stem cells (WA09, also called H9 cells, obtained from WiCell, Madison, Wis.) dissociated with Accutase were seeded into AggreWell™ plates (StemCell Technologies, Vancouver, Canada) to generate EBs. Bright field images were taken 24 hours after seeding.
H9 cells dissociated with Accutase were seeded into 96-well plates (ultra-low attachment) to generated EBs. After 24 hours, calcein (green staining, live cells) and PI (red staining, dead cells) were added to the cell culture medium to visualize live and dead cells in the wells.

H9 cells [2] = experiment: Survival and attachment of single-cell dissociated cells (CellTiter-Glo, time-lapse imaging); format: cell-based, human; details: 50 nM Chroman 1, 5 μM Emricasan; vitronectin-coated plates, over 24 hours
Description: CellTiter-Glo® assay was used to quantify viable […] cells 24 hours post-plating (100,000 cells/[…]). […] Cellular stress was already apparent 20 minutes after plating in the presence of Emricasan, which ultimately led to dead cells at 24 hours.

H9 cells [3] = experiment: Dose-response curves of selected ROCK inhibitors, cell survival (CTG); format: cell-based, human; details: four replicates, normalized to CTG reading at 10 μM Y-27632
Text: Molar concentrations of the selected ROCK inhibitors are plotted on the X-axis (log scale). […] Thusly normalized data were plotted on the Y-axis.

H9 cells [4] = experiment: Long-term passaging of H9 cells (40 passages); format: cell-based, human; details: 24 hours treatment at every passage
H9 cells [5] = experiment: qHTS for survival of dissociated H9 cells (CellTiter-Glo, 24 hours after seeding); format: cell-based, human; details: Homo sapiens; for AC50: CellTiter-Glo 24 hours after seeding, read-out: AC50 (concentration at 50% efficacy)
Text: FIG. 2 schematically illustrates qHTS procedure.
All the screed compounds were received pre-plated at the pre-determined concentrations. […] Curve classification is explained in Huang et al. “Chemical genomics profiling of environmental chemical modulation of human nuclear receptors” Environ. Health. Perspect.

human kinases = experiment: Kinase profiling, HotSpot Kinase Assay; format: biochemical; details: Y-27632 at 10 μM, Chroman 1 at 50 nM; for specificity / off-target inhibition: under 10% of original activity deemed significant
Text: The results of kinase profiling experiments are illustrated in FIG. 8. […] The phylogenic trees of human kinases were generated based on a neighbor-joining tree via ClustalW software derived from multiple protein sequence alignment of human kinase domains (Manning et al., “The protein kinase complement of the human genome” Science 298:1912-1934 (2002)).

H9 cells [6] = experiment: Cell survival after routine passage (caspase 3/7 imaging, CTG); format: cell-based, human; details: 100,000 cells per cm^2; 10 μM Y-27632, 50 nM Chroman 1, 5 μM Emricasan
H9 cells [7] = experiment: Combinatorial matrix screening for synergistic effects on cell survival; format: cell-based, human; details: 10×10 matrix, normalized to 10 μM Y-27632
Description: Combinatorial matrix screening was performed to identify the compounds with synergistic effects on cell survival. Focusing on the compounds with different mechanisms of action, 29 compounds were selected for combinational matrix screening, resulting in 812 sets of 10×10 checkerboard matrix experiments (data not shown), four of which are illustrated in FIG. 9. The concentrations of the compounds for combinational matrix screening were optimized based on the slope and potency (AC50) derived from single-agent qHTS dose-response curves, so that the matrix screen covered a wide range of biological effect observed in the cell viability assay. […] The numerals in each 10×10 matrix show the maximum survival achieved with the indicated combinations or single agents. The maximum survival achieved by each pair of compounds is represented by the highest numbers in each 10×10 matrix, the examples of which are shown in FIG. 9. The bottom matrices depict the synergy matrix calculated using highest-single agent (HSA) model. The HSA synergy assesses the pro-survival benefit of compound combination compared to single agent alone, which was computed as the difference between cell survival out of combination and that from the best single agent at each tested concentration. Synergy is defined as the difference between the combination and max response with single agent (synergy=combination max (single agent A, single agent B).

hESCs (H9) = experiment: Western blot of hESCs after passaging; format: cell-based, human; details: 3 hours post-passage
Text: GAPDH was used as a loading control and house-keeping protein control.
Higher observed levels of phosphorylated CHK2 on threonine 68 indicated cell cycle arrest.

H9 cells [8] = experiment: Propidium iodide dead cell count of dissociated H9 cells; format: cell-based, human; details: 10 μM Y-27632 vs 50 nM Chroman 1; 12 hours after plating; EDTA or Accutase dissociation
Description: H9 cells were dissociated with 0.5 mM ethylenediaminetetraacetic acid (EDTA) or Accutase (enzymatic dissociation) according to standard procedures and seeded into vitronectin coated 6-well plates. Phase-contrast and fluorescence microscopy digital images were taken 12 hours after cell plating (data not shown). To generate the fluorescence microscopy images, live cells were stained with Calcein (0.5 μg/ML; Thermo Fisher Scientific, catalog number: C34852), and dead cells were stained with propidium iodide (PI; 500 nM; Thermo Fisher Scientific, catalog number: P3566). For quantitative analysis, the cells were counted using an automated cell counter (Cellometer Auto 2000, Nexcelom). The results of PI staining are illustrated in the bar graph shown in the right panel of FIG. 5.

OCT4 expressing cells = experiment: Microscopy of stress mechanisms during cell passaging; format: cell-based; details: 3 hours post-plating
Description: The scale bars shown are 10 μm. Upper panel illustrates confocal microscopic analysis of the lamin B1-GFP iPSC reporter line (Allen Insitute for Cell Science, Seattle, Wash.) displaying dramatic morphological differences in nuclear shape during cell passaging (30 min after plating). […] Lower panel illustrates dramatic cytoskeletal differences during cell passaging (3 hours post-plating), as measured by immunocytochemistry against actin and myosin.

H9 cells [9] = experiment: Low seeding density screen for synergy with Chroman 1 and Emricasan; format: cell-based, human; details: validation of qHTS hits
Description: To extend and maximize the use of Chroman 1 and Emricasan for low cell seeding density conditions and single cell cloning, we developed another combinatorial screening strategy. Experimental studies were performed that identified Trans-ISRIB and polyamines as additional cell survival-promoting factors. An assay was developed to screen for compounds that are capable of overcoming cellular stress associated with low cell seeding density. The experiments aimed to define the detection limit and signal strength of the CTG assay in order to detect single cells per well. H9 cells (obtained from WiCell) were used.
Dissociated stem cells were plated onto vitronectin-coated 1536-well plates at the per-well densities indicated on the X-axis. All the plates were prepared in duplicates. One set of plates was read with CTG right after dispensing (r1), and the other set was read 24 hours after (r2). The CTG fold change plotted on Y-axis was calculated as the ratio of r2 to r1 (r2/r1) to reflect cell survival and growth within 24 hours. […] The middle line within the box is the median cell growth. The upper and lower box hinges represent the 75th and 25th percentiles, whereas the upper and lower whiskers extend from the box hinge to the largest or lowest value no further than 1.5× distance between 25th and 75th percentile.

H9 cells [10] = experiment: Colony formation at 25 cells/cm2; format: cell-based, human
Description: The experiments were performed validating the “hits” obtained from the primary screening. Pluripotent stem cells (H9 cells obtained from WiCell) were dissociated using TrypLE (Thermo-Fisher) and seeded into 6-well plates at a density of 25 cells/cm′.
Whole-well images (6-well plate) were captured with calcein green (0.5 μg/mL; Thermo Fisher Scientific, catalog number: C34852).
Systematic comparison of small molecule combinations and their effect on colony number and colony size of hESCs plated on vitronectin at 25 cells/cm^2 in StemFlex medium was performed. The quantification of the colony formation rate and median colony size was performed 6 days after plating.

[11] = H9, 24 h, H9 cell survival normalized to 10 μM Y-27632 (taken to be 100%), read-out: Max (maximum activity value from all tested concentrations)
[12] = H9, 24 h, H9 cell survival, normalized to 10 μM Y-27632, read-out: Efficacy (activity range between predicted activities at zero and infinite doses, Hill equation)

T1 sequence (Q13464 whole entry): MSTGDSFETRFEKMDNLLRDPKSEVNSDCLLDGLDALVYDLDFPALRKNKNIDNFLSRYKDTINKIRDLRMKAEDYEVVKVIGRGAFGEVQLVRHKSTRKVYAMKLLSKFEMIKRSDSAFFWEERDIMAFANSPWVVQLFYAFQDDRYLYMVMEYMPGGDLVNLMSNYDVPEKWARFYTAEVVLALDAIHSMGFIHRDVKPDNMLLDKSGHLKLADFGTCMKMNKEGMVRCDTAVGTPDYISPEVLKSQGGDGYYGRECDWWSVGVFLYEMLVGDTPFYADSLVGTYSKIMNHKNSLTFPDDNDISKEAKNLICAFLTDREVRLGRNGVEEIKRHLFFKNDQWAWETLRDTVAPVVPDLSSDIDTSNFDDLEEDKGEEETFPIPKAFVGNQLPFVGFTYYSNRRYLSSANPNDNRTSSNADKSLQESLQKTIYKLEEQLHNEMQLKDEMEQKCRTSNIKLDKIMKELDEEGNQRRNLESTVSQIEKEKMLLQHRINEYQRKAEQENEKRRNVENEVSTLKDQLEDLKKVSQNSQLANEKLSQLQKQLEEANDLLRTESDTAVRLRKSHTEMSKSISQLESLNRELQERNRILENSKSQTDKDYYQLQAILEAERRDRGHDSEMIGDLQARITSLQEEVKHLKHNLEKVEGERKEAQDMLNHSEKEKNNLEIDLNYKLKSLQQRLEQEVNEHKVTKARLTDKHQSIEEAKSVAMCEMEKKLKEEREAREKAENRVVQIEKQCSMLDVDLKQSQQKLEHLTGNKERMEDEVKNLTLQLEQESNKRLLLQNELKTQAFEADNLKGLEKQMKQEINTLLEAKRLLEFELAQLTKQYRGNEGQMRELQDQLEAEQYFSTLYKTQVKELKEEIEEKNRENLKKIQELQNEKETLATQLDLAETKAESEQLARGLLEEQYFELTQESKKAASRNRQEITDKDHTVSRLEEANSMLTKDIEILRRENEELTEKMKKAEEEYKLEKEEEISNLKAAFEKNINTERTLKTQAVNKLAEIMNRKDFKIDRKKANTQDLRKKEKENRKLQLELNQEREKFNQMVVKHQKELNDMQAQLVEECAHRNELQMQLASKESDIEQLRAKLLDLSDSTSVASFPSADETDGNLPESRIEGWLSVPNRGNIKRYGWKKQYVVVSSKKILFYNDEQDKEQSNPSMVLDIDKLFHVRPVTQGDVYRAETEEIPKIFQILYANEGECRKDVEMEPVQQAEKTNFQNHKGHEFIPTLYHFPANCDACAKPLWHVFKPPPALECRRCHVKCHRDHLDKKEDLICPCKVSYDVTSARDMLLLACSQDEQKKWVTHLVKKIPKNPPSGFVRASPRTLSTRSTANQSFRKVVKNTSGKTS

Compound	single EB formation and dead cells (H9 cells [1])	cell attachment and survival in time-lapse imaging (H9 cells [2])	Emax (H9 cells [5]; [11]) [%]	Emax (H9 cells [5]; [12]) [%]	primary targets (human kinases)	specificity / off-target inhibition (human kinases)	cell survival after single-cell dissociation (H9 cells [6])	further results
COc1ccc2c(c1)C[C@H](C(=O)Nc1ccc(-c3cn[nH]c3)cc1OCCN(C)C)CO2 [Chroman 1, (3S)—N-{2-[2-(Dimethylamino)ethoxy]-4-(1H-pyrazol-4-yl)phenyl}-6-methoxy-3,4-dihydro-2H-1-benzopyran-3-carboxamide]	amount of dead cells was significantly lower	cell attachment already 20 min after plating	110	108	ROCK1 and ROCK2	higher specificity	further improved cell survival	IC50 against ROCK1 (comparison in words) (ROCK1): more potent ROCK inhibitor than Y-27632; potency in dose-response of cell survival (H9 cells [3]): more potent than to Y-27632, Thiazovivin or Fasudil; karyotype after long-term passaging (H9 cells [4]): maintained a normal karyotype; AC50 (H9 cells [5]; H9, 24 h, H9 cell survival): 0.29 µM
C[C@H](NC(=O)C(=O)Nc1ccccc1C(C)(C)C)C(=O)N[C@@H](CC(=O)O)C(=O)COc1c(F)c(F)cc(F)c1F [Emricasan, 3-(2-(2-tert-butylphenylaminooxalyl)aminopropionylamino)-4-oxo-5-(2,3,5,6-tetrafluorophenoxy)pentanoic acid]	did not result in proper cell aggregation and EB formation	not sufficient to improve cell viability beyond 24 hours						Emax (H9 cells [5]; H9, 24 h, read-out: Efficacy (activity range between predicted activities at zero and infinite doses, Hill equation)): 95.8%; Emax (H9 cells [5]; H9, 24 h, read-out: Max (maximum activity value from all tested concentrations)): 76.4%; AC50 (H9 cells [5]; H9 cell survival): 33.2 µM; synergy with Chroman 1 on cell survival (HSA model) (H9 cells [7]): synergistic with Chroman 1
C[C@@H](N)[C@H]1CC[C@H](C(=O)Nc2ccncc2)CC1 [Y-27632]	Dead cells surrounded the EBs		95.5	96.2	ROCK1 and ROCK2	a number of off-targets, including PKCeta (also known as PKC η or PRKCH), PKCepsilon (also known as PKC ε or PRKCE), PKCdelta (also known as PKC δ or PRKCD), PKN1, PKN2 and PRKX	beneficial	phosphorylated eIF2A at serine 51 (hESCs (H9)): High levels of p-eIF2A(S51); stress response markers (γH2AX, ATF4) (hESCs (H9)): Strong stress response; number of propidium iodide-positive dead cells (H9 cells [8]): higher number of dead cells than Chroman 1 treatment; cytoskeleton (actin, myosin immunocytochemistry) (OCT4 expressing cells): form prominent actin stress fibers at the colony edge; γH2AX immunoreactivity (OCT4 expressing cells): immunoreactive for γH2AX
O=C(COc1ccc(Cl)cc1)N[C@H]1CC[C@H](NC(=O)COc2ccc(Cl)cc2)CC1 [trans-ISRIB, N,N′-((1r,4r)-cyclohexane-1,4-diyl)bis(2-(4-chlorophenoxy)acetamide)]								cell survival at low density combined with 50 nM Chroman 1 and 5 μM Emricasan (H9 cells [9]): cell survival-promoting effect; cell survival when added to the combination of Chroman 1 and Emricasan (H9 cells [10]): further improved cell survival
